According to PMC8608967, “KDS2010, a Newly Developed Reversible MAO-B Inhibitor, as an Effective Therapeutic Candidate for Parkinson’s Disease” (Neurotherapeutics, 2021):

Experiments:
6-OHDA model rats = experiment: 6-OHDA rat model: stepping test, rotarod test, TH; details: 6-OHDA rats; 10 mg/kg/day for 15 days starting 17 days post-6-OHDA
Procedure: (§1) Group allocation and outcome assessment, but not the conduct of experiments and data analysis, were performed in a blinded manner. Throughout the study, confounders were not controlled. An acclimation period of 7 days was allowed for animals to stabilize in a new environment before model induction. […] Treatment drugs were dissolved in 100 μL of water and total dose (in mg) was calculated according to individual body weight (in kg). […] An experiment was halted if body weight decreased by 20% or more after MPTP or 6-hydroxydopamine (6-OHDA) treatment.
Finally, the 6-OHDA model was prepared as previously described [21]. Under general anesthesia, all rats received unilateral injections of 8 μg 6-OHDA (Sigma Aldrich) in 4 μL saline/0.1% ascorbic acid into the right medial forebrain bundle (AP − 2.2 mm and L + 1.5 mm relative to the bregma, V − 8.0 mm from the dura) [19], with the tooth bar set at + 4.5 mm.
Motor deficits of 6-OHDA and A53T mutant α-synuclein model rats were assessed as previously described with slight modifications [27]. Briefly, both hind limbs and one forelimb were firmly fixed in the two hands of the experimenter, and the rat was lowered over a treadmill moving at rate of 18 cm/s such that the body remained stationary while the free forelimb was allowed to spontaneously touch the moving treadmill track for 10 s. All experimental sessions were video recorded to count the number of adjusting steps taken in the backward direction. The number of adjusting steps was averaged across four trials in each session.
In addition, impaired motor coordination of 6-OHDA model rats was examined using the rotarod test as previously described with slight modifications [28]. […] Before the first rotarod test, all rats were pre-trained until riding time reached 60 s at 10 rpm (B.S Technolab, Seoul, Korea). Each session consisted of two trials, and riding time was averaged to obtain pre-6-OHDA, 0d, 7d, and 15d results.

[1] = test system: MPTP-induced PD mouse model; experiment: MPTP mouse model: TH (DAB) and Nissl staining of SNpc and striatum; details: MPTP mice; long-term treatment, 29 days before MPTP and one more day after, 10 mg/kg/day oral; 10 mg/kg/day
Procedure: as §1
The MPTP model was established using the acute regimen of four intraperitoneal (i.p.) injections of MPTP-HCl (M0896, Sigma Aldrich, 2 mg/mL in saline, 20 mg/kg for one injection) at 2-h intervals. All MPTP use and safety precautions were strictly followed as described [18].
Coronal sections for striatum and SNpc were prepared at 30-μm thickness and immunostained using a DAB staining kit (TL-060-QHD, Thermo, MA, USA). […] After washing in PBS 3 times, sections were incubated in Primary Antibody Amplifier Quanto (TA-060-QPB, Thermo) for 5 min, washed again in PBS, incubated in HRP Polymer Quanto for 1 h, washed 4 times in PBS, and dipped for 30 s in a 1:10 mixture of DAB + chromogen and DAB + substrate buffer (K3468, Dako, Denmark). Finally, sections were washed, immersed in mounting medium, and dried.
Every 6th section including the SN was stained with anti-TH and the number of TH-positive neurons counted under low magnification (× 10) from the rostral tip of the SNpc to the caudal end of the substantia nigra pars reticulate (SNpr). […] The total number of neurons per section was estimated according to the optical fractionator formula. The total number of SNpc neurons in a hemisphere was then obtained by multiplying the number counted using Stereo Investigator 11 by the slice interval (six).
Other 30-μm-thick coronal sections from the SNpc were Nissl stained to assess viable cell number. Briefly, slices were stained with 0.1% cresyl violet solution for 3 min, rinsed with distilled water, and placed in a chamber filled with 70% ethanol for 1 min. […] A series of bright field images were obtained using an Olympus microscope. The slices were classified according to AP coordinates and Nissl-positive neurons counted using the counting tool of ImageJ (NIH, MD, USA).

[2] = test system: MPTP-induced PD mouse model; experiment: MPTP mouse model: vertical grid test and coat hanger test; format: in vivo; details: MPTP mice; long-term (30-day) treatment, 10 mg/kg/day oral
Procedure: Group allocation and outcome assessment, but not the conduct of experiments and data analysis, were performed in a blinded manner. Throughout the study, confounders were not controlled. An acclimation period of 7 days was allowed for animals to stabilize in a new environment before model induction. […] Treatment drugs were dissolved in 100 μL of water and total dose (in mg) was calculated according to individual body weight (in kg).
The MPTP model was established using the acute regimen of four intraperitoneal (i.p.) injections of MPTP-HCl (M0896, Sigma Aldrich, 2 mg/mL in saline, 20 mg/kg for one injection) at 2-h intervals.
Motor deficits of the MPTP-induced PD mouse model were assessed using the vertical grid test as described in the previous study [23]. Briefly, after 2 days of habituation to the testing apparatus, individual mice were gently placed 3 cm from the top, facing upward, and allowed to turn around and climb down. We also performed a coat hanger test as described [24–26]. Briefly, a mouse was gently hung on the middle of a coat hanger and allowed to ascend to the top. Performance was graded as follows: 0, falling off the hanger within 20 s; 1, moving to the side-bar of the hanger; 2, reaching the side-bar of the hanger; 3, climbing the side-bar of the hanger; 4, moving to the top of the hanger; 5, climbing and reaching the safe zone. The test was performed twice and each trial lasted a maximum of 3 min.

[3] = H2O2 scavenging capacity test (Amplex red/HRP); details: 10 min incubation with H2O2 at RT
Procedure: To determine the H2O2 scavenging capacity of the test compound, H2O2 concentration was measured using the modified Amplex red/horseradish peroxidase (HRP) detection method as described previously. Briefly, a H2O2 solution was incubated with the test compound for 10 min at room temperature (RT), and then the reaction solution containing 20 mM Amplex red and 200 U/mL HRP was added. The absorbance was measured at 570 nm using a microplate reader. The H2O2 scavenging capacities were compared to a blank negative control and to the known H2O2 scavenger epigallocatechin gallate (EGCG) as a positive control.

| Compound | stepping test: stepping behavior deficit of the contralateral forepaw (6-OHDA model rats) | loss of TH-positive cells in the SNpc [1] | vertical grid test: time to turn [2] | vertical grid test: total time [2] | H2O2 scavenging effect [3] |
| --- | --- | --- | --- | --- | --- |
| C#CCN(C)[C@H](C)Cc1ccccc1 [selegiline, reference compound] | did not improve | non-significant increasing tendency | reduced | reduced | – |
| epigallocatechin-3-gallate [EGCG, reference compound] | – | – | – | – | dose-dependent effect of H2O2 scavenging |
